According to ChEMBL document CHEMBL1201862, “PubChem BioAssay data set” (2004):
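96-well plates; 48 h exposure; 5 concentrations. Endpoints by linear interpolation between flanking doses. Not reached: highest tested concentration assigned. Here, GI50 denotes the concentration required for 50% inhibition of growth.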 Activity calls are given as the source filed them. No stated cut-off is given here; in the data, active = GI50 up to about 1.1 µM and inactive = higher. Square brackets hold non-standard residues; d marks the D form. Peptide text beside a SMILES is read from it. pGlu = O=C1CC[C@@H](C(=O)O)N1; Thz = O=C(O)[C@@H]1CSCN1

Legend:
Experiment in all cases: NCI anticancer screen, dose series, 48 h
A498 = system: A498
A549 = system: A549
ACHN = system: ACHN
CAKI-1 = system: CAKI-1
CCRF-CEM = system: CCRF-CEM
EKVX = system: EKVX
HOP-62 = system: HOP-62
M14 = system: M14
Malme-3M = system: Malme-3M
NCI-H226 = system: NCI-H226
NCI-H23 = system: NCI-H23
OVCAR-4 = system: OVCAR-4
PC-3 = system: PC-3
SF-539 = system: SF-539
SK-MEL-5 = system: SK-MEL-5
SN12C = system: SN12C
TK-10 = system: TK-10
U-251 = system: U-251
UO-31 = system: UO-31
HL-60 = system: HL-60

SMILES	GI50 (A498)	GI50 (A549)	GI50 (ACHN)	GI50 (CAKI-1)	GI50 (CCRF-CEM)	GI50 (EKVX)	GI50 (HOP-62)	GI50 (M14)	GI50 (Malme-3M)	GI50 (NCI-H226)	GI50 (NCI-H23)	GI50 (OVCAR-4)	GI50 (PC-3)	GI50 (SF-539)	GI50 (SK-MEL-5)	GI50 (SN12C)	GI50 (TK-10)	GI50 (U-251)	GI50 (UO-31)	GI50 (HL-60)
COC(=O)[C@@]1(NC(=O)C(CC(=O)OC(C)(C)C)NC(=O)OC(C)(C)C)C[C@H]1C (stereo not given in full)	> 100 µM (inactive)	> 100 µM (inactive)	> 100 µM (inactive)	> 100 µM (inactive)	> 100 µM (inactive)	> 100 µM (inactive)	> 100 µM (inactive)	> 100 µM (inactive)	> 100 µM (inactive)	> 100 µM (inactive)	> 100 µM (inactive)	> 100 µM (inactive)	> 100 µM (inactive)	> 100 µM (inactive)	> 100 µM (inactive)	> 100 µM (inactive)	> 100 µM (inactive)	> 100 µM (inactive)	> 100 µM (inactive)	–
O=C(O)C[C@@H]1[C@@H](O)[C@@H](O)CN2C(=O)c3ccccc3[C@H]12	> 100 µM (inactive)	> 100 µM (inactive)	> 100 µM (inactive)	> 100 µM (inactive)	–	> 100 µM (inactive)	> 100 µM (inactive)	> 100 µM (inactive)	> 100 µM (inactive)	> 100 µM (inactive)	> 100 µM (inactive)	> 100 µM (inactive)	> 100 µM (inactive)	> 100 µM (inactive)	> 100 µM (inactive)	> 100 µM (inactive)	> 100 µM (inactive)	> 100 µM (inactive)	> 100 µM (inactive)	–
O=C1CC[C@@H](C(=O)N2CSC[C@H]2C(=O)O)N1 [PIDOTIMOD] ([pGlu]-[Thz]-OH)	> 100 µM (inactive)	> 100 µM (inactive)	> 100 µM (inactive)	> 100 µM (inactive)	> 100 µM (inactive)	–	> 100 µM (inactive)	> 100 µM (inactive)	> 100 µM (inactive)	> 100 µM (inactive)	> 100 µM (inactive)	–	> 100 µM (inactive)	> 100 µM (inactive)	> 100 µM (inactive)	> 100 µM (inactive)	> 100 µM (inactive)	–	> 100 µM (inactive)	> 100 µM (inactive)
c1ccc([P+](CCN2Cc3ccccc3C2)(c2ccccc2)c2ccccc2)cc1	18 µM (inactive)	4.99 µM (inactive)	5.69 µM (inactive)	38.3 µM (inactive)	2.64 µM (inactive)	3.84 µM (inactive)	8.67 µM (inactive)	5.36 µM (inactive)	8.59 µM (inactive)	3.84 µM (inactive)	5.46 µM (inactive)	–	4.8 µM (inactive)	6.15 µM (inactive)	2.04 µM (inactive)	4.56 µM (inactive)	10.4 µM (inactive)	2.19 µM (inactive)	12.1 µM (inactive)	2.77 µM (inactive)
Cc1cc(C(O)CNC(C)CCn2cnc3c2c(=O)n(C)c(=O)n3C)ccc1O (stereo not given)	> 100 µM (inactive)	> 100 µM (inactive)	> 100 µM (inactive)	> 100 µM (inactive)	> 100 µM (inactive)	> 100 µM (inactive)	> 100 µM (inactive)	> 100 µM (inactive)	> 100 µM (inactive)	> 100 µM (inactive)	> 100 µM (inactive)	> 100 µM (inactive)	> 100 µM (inactive)	> 100 µM (inactive)	> 100 µM (inactive)	> 100 µM (inactive)	> 100 µM (inactive)	> 100 µM (inactive)	> 100 µM (inactive)	–
CSc1nc(O)c(C#N)c(-c2ccc(Cl)cc2)n1	74.6 µM (inactive)	> 100 µM (inactive)	> 100 µM (inactive)	> 100 µM (inactive)	61 µM (inactive)	> 100 µM (inactive)	> 100 µM (inactive)	> 100 µM (inactive)	–	> 100 µM (inactive)	> 100 µM (inactive)	> 100 µM (inactive)	91.4 µM (inactive)	> 100 µM (inactive)	> 100 µM (inactive)	> 100 µM (inactive)	> 100 µM (inactive)	97.9 µM (inactive)	36.5 µM (inactive)	35.5 µM (inactive)
Cc1cc(C)c(O)c(CN2CCN(C(C)C)CCN(C(C)C)CC2)c1	> 100 µM (inactive)	32.3 µM (inactive)	32.1 µM (inactive)	75.2 µM (inactive)	19.1 µM (inactive)	78.5 µM (inactive)	–	12.4 µM (inactive)	13.8 µM (inactive)	12 µM (inactive)	–	46.6 µM (inactive)	22.3 µM (inactive)	10.4 µM (inactive)	> 10 µM (inactive)	27.5 µM (inactive)	36.2 µM (inactive)	37 µM (inactive)	18.6 µM (inactive)	11.7 µM (inactive)
CCC(=O)O[C@H]1CC[C@H]2[C@@H]3CCC4=C/C(=N/OC(=O)c5cccc6cc7ccccc7nc56)CC[C@]4(C)[C@H]3CC[C@]12C	> 100 µM (inactive)	71.1 µM (inactive)	> 100 µM (inactive)	> 100 µM (inactive)	41.2 µM (inactive)	53.6 µM (inactive)	50.5 µM (inactive)	64.1 µM (inactive)	29.2 µM (inactive)	> 100 µM (inactive)	52.8 µM (inactive)	76 µM (inactive)	29 µM (inactive)	43.4 µM (inactive)	15.2 µM (inactive)	> 100 µM (inactive)	–	51.9 µM (inactive)	–	44.3 µM (inactive)
C[C@]12CC[C@H](O)CC1=CC[C@@H]1[C@@H]2CC[C@]2(C)C(=N/O)/C(=C/c3ccc([N+](=O)[O-])cc3)C[C@@H]12	3.33 µM (inactive)	0.782 µM (active)	4.13 µM (inactive)	7.05 µM (inactive)	5.94 µM (inactive)	2.59 µM (inactive)	0.619 µM (active)	6.75 µM (inactive)	7.43 µM (inactive)	1.16 µM (inactive)	5.94 µM (inactive)	5.33 µM (inactive)	3.22 µM (inactive)	4.09 µM (inactive)	1.18 µM (inactive)	3.08 µM (inactive)	–	–	8.22 µM (inactive)	1.91 µM (inactive)
O=C1C=C2C(=NC34CCCCC3C(c3ccccc3)C3=C(c5ccccc5CC3)N24)c2ccccc21 (stereo not given)	> 10 µM (inactive)	> 10 µM (inactive)	> 10 µM (inactive)	> 10 µM (inactive)	> 10 µM (inactive)	> 10 µM (inactive)	> 10 µM (inactive)	> 10 µM (inactive)	> 10 µM (inactive)	> 10 µM (inactive)	> 10 µM (inactive)	> 10 µM (inactive)	> 10 µM (inactive)	> 10 µM (inactive)	> 10 µM (inactive)	> 10 µM (inactive)	> 10 µM (inactive)	> 10 µM (inactive)	–	> 10 µM (inactive)
Nc1ncnc2c1ncn2[C@H]1C=C[C@@H](NO)C1	> 100 µM (inactive)	> 100 µM (inactive)	> 100 µM (inactive)	> 100 µM (inactive)	> 100 µM (inactive)	> 100 µM (inactive)	> 100 µM (inactive)	> 100 µM (inactive)	> 100 µM (inactive)	> 100 µM (inactive)	> 100 µM (inactive)	> 100 µM (inactive)	> 100 µM (inactive)	> 100 µM (inactive)	> 100 µM (inactive)	> 100 µM (inactive)	> 100 µM (inactive)	> 100 µM (inactive)	> 100 µM (inactive)	–
Cc1n[nH]c(C(F)(F)F)c1/N=N/N1CCOCC1	17.4 µM (inactive)	8.89 µM (inactive)	4.52 µM (inactive)	1.9 µM (inactive)	0.423 µM (active)	5.74 µM (inactive)	8.77 µM (inactive)	14.7 µM (inactive)	14.9 µM (inactive)	8.53 µM (inactive)	4.06 µM (inactive)	5.86 µM (inactive)	7.16 µM (inactive)	14.2 µM (inactive)	2.92 µM (inactive)	11 µM (inactive)	12 µM (inactive)	12 µM (inactive)	2.4 µM (inactive)	–
COc1cc(Br)c(CC2C3=C(CCN2C(=O)C2CCC2)CC2(CC3)OCCO2)cc1O (stereo not given)	62.2 µM (inactive)	57.9 µM (inactive)	98.4 µM (inactive)	68.4 µM (inactive)	52.6 µM (inactive)	34.2 µM (inactive)	> 100 µM (inactive)	62.5 µM (inactive)	65 µM (inactive)	> 100 µM (inactive)	28.8 µM (inactive)	34.4 µM (inactive)	46.6 µM (inactive)	> 100 µM (inactive)	35.3 µM (inactive)	84.1 µM (inactive)	29.2 µM (inactive)	> 100 µM (inactive)	–	46.7 µM (inactive)
O=C(Nc1nnc(-c2c(Cl)c(Cl)c(Cl)c(Cl)c2-c2nc3cc(C(=O)c4ccccc4)ccc3[nH]2)o1)c1ccccc1	18.2 µM (inactive)	14.9 µM (inactive)	19.5 µM (inactive)	32.3 µM (inactive)	8.36 µM (inactive)	17.9 µM (inactive)	10.4 µM (inactive)	15.4 µM (inactive)	–	16.7 µM (inactive)	18.9 µM (inactive)	21 µM (inactive)	13 µM (inactive)	11.5 µM (inactive)	5.07 µM (inactive)	15.3 µM (inactive)	21.8 µM (inactive)	13.6 µM (inactive)	31.8 µM (inactive)	11.4 µM (inactive)
